Experimental data from PMC8841740, “Fluorescent Ligand-Based Discovery of Small-Molecule Sulfonamide Agonists for GPR120” (Frontiers in Chemistry, 2022).

Columns and labels:
[1] = target: T1, GPR40 (Homo sapiens, UniProt O14842); assay: GPR40 Ca2+ flow assay in CHO cells with transient GPR40 gene; type: cell-based
T1 construct: expressed in transfected cells; host or cells: CHO (transient)
Description: Ca^2+ flow activity was determined in HEK293 cells stably transfecting the GPR120-Rluc gene. After incubating the cells for 24 h, the medium was removed from the plate, and the cells were washed with HBSS buffer (without Ca^2+ and Mg^2+). Subsequently, a 2-μM Fluo-4 AM working solution in HBSS buffer (without Ca^2+ and Mg^2+) was added to the plate (40 μl per well). After incubating the cells for 20 min at 37°C, compound solution at different concentrations in HBSS buffer (per well 160 μl) was added. Followed by a 40-min incubation, the solution was removed from the plate, HEPES buffer (200 μl per well) was added, and the fluorescence intensity was detected using the microplate reader (Ex: 488 nm; Em: 520 nm) ([Watterson et al., 2017]).
Ca^2+ flow activity was determined in CHO cells with transient GPR40 gene by the same method as well, in which the GPR40 agonist TAK875 was used as a positive control.

[2] = system: db/db mice; assay: Fasting blood glucose in db/db mice after 4 weeks of administration; type: in vivo; conditions: gavage once a day
Description: (§1) All animal studies were approved by the Ethics Committee and IACUC of Cheeloo College of Medicine, Shandong University, and were conducted in compliance with European Guidelines for the Care and Use of Laboratory Animals. After adaptive feeding for 10–15 days, the db/db mice were divided into positive control group (30 mg/kg), low content compound group (10 mg/kg), high content compound group (30 mg/kg), and negative control group (the same volume dosing solvent). These mice were administrated by gavage once a day (administration volume, 20 ml/kg) for four consecutive weeks. During the administration period, the fasting blood glucose (without food and water for 6 h) was measured twice a week by using a blood glucose meter. The blood glucose level was measured for four consecutive weeks. The data was processed with Graphpad 8.2 software ([Cox et al., 2017]; [Zhang et al., 2017]).

[3] = system: db/db mice; assay: Glucose tolerance test in db/db mice; type: in vivo
Description: On the last day of the dosing cycle, the fasting blood glucose of mice was measured (without food and water for 6 h), and glucose solution (100 mg/kg) was injected. The blood glucose was measured at […] (5, 10, 30, 60, and 120 min). Finally, the area under the curve was analyzed with SPSS 24 software.

[4] = system: GPR120; assay: Bias of agonists (Gq versus β-arrestin2 pathway); type: cell-based; conditions: reference GSK137647A pathways P1 Gq, P2 β-arrestin2
Description: The bias was quantified by Eq. 1, in which β is the bias factor, Emax is the maximum effect produced by the agonist, and Pl and P2 represents the Gq and β-arrestin2 signal pathway, respectively.
Formula 1: β=log((Emax,P1/EC50,P1EC50,P2/Emax,P2)lig×(Emax,P2/EC50,P2EC50,P1/Emax,P1)ref) (1)

[5] = Weight changes of db/db mice during four weeks of administration; type: in vivo
Description: as §1

[6] = target: T2, GPR120 (Homo sapiens, UniProt Q5NUL3); assay: GPR120 Ca2+ flow assay in HEK293 cells stably transfecting the GPR120-Rluc gene; type: cell-based; design: expressed in transfected cells
T2 sequence (Q5NUL3 1-361): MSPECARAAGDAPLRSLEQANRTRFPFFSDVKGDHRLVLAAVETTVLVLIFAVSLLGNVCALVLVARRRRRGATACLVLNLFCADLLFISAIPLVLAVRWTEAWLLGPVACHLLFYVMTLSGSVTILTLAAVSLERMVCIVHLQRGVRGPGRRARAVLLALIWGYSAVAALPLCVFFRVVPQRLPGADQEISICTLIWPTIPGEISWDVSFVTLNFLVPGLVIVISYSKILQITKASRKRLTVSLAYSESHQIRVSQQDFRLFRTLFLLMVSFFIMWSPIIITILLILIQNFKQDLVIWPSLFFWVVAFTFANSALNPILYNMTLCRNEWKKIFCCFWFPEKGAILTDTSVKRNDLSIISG
Description: Ca^2+ flow activity was determined in HEK293 cells stably transfecting the GPR120-Rluc gene. After incubating the cells for 24 h, the medium was removed from the plate, and the cells were washed with HBSS buffer (without Ca^2+ and Mg^2+). Subsequently, a 2-μM Fluo-4 AM working solution in HBSS buffer (without Ca^2+ and Mg^2+) was added to the plate (40 μl per well).

[7] = target: T2, GPR120; assay: Preliminary screening of agonists by BRET competition with probe N1; type: binding; design: expressed in transfected cells; conditions: 10 μM compound, probe N1 400 nM
Description: HEK293 cells stably transfected with the GPR120-Rluc gene were seeded in a black 96-well plate (100 μl, 2 × 10^4 cells per well). After a 24-h incubation, the medium was removed, probe N1 (400 nM, 50 μl per well) was added, and 10 μM of the compound was added after a 30-min incubation as well. Followed by a 40-min incubation, coelenterazine (final concentration: 10 μM, 50 μl per well) was added to the plate. Afterward, the fluorescence intensity was measured at 450 and 550 nm with the microplate reader after another 10-min incubation.

[8] = target: T2, GPR120; assay: Fluorescence imaging in HEK293 cells (stably transfected with GPR120) and PC-3 cells; type: cell-based; design: expressed in transfected cells
Description: HEK293 and PC-3 cells were seeded in fluorescent confocal dishes (5 × 10^3 per well). After the cells were iron-walled, the medium was removed from the dishes, the cells were washed once with a serum-free medium, and the probe was added. After incubating the cells for 10 min, the confocal dishes were observed by an inverted fluorescence microscope.

[9] = target: T2, GPR120; assay: BRET activity test (β-arrestin-2 recruitment, GPR120-YFP / β-arrestin-2-Rluc in HEK293 cells); type: cell-based; design: host or cells: HEK293 (transfected with both plasmids)
Description: GPR120-YFP and β-arresting-2-Rluc plasmids were transfected into HEK293 cells. After a 24-h incubation, the cells were seeded in a black 96-well plate (100 μl, 20,000 cells per well). Followed by a 24-h incubation, the solution was removed from the plate, and compounds with different concentrations (100 μl per well) and coelenterazine (10 μM, 100 μl per well) were added, followed by the fluorescence intensity was measured at 460 and 520 nm with the microplate reader ([Christiansen et al., 2016]; [Hill et al., 2018]).

[10] = system: GPR120; conditions: cited from earlier work
[11] = system: FFA4; design: method as in Sparks et al., 2014; conditions: in Figure 3; ref Sparks et al., 2014; cited from earlier work
[12] = system: FFA1; design: method as in Sparks et al., 2014; conditions: in Figure 3; ref Sparks et al., 2014; cited from earlier work
[13] = target: T2, GPR120; assay: BRET competitive binding experiment with probe N1; design: expressed in transfected cells; conditions: probe N1 400 nM, read-out: pKi (N1) (converted)
Description: HEK293 cells stably transfected with the GPR120-Rluc gene were seeded in a black 96-well plate (100 μl, 2 × 10^4 cells per well). After the cells were incubated for 24 h, the medium was removed, and probe N1 (400 nM, 50 μl per well) was added. […] Followed by a 40-min incubation, coelenterazine was added to (final concentration: 10 μM, 50 μl per well) the plates. Thenceforward, the fluorescence intensity was measured at 450 and 550 nm with the microplate reader after a 10-min incubation.

[14] = Optical property of fluorescent probes; type: physicochemical
Description: The stocking solution of probes was diluted with acetonitrile to 40 μM, and their ultraviolet absorption spectrum was scanned with an ultraviolet spectrophotometer. Secondly, the excitation and emission spectra of probes at 10, 20, 30, and 40 μM with PBS buffer were measured with a microplate reader. Moreover, the excitation and emission spectrum were recorded in four solvents: MeCN, DMSO, H2O, and EA, respectively.

[15] = target: T2, GPR120; assay: BRET saturation experiment of probe N1; design: expressed in transfected cells; conditions: 15 μM GSK134647A for non-specific binding
Description: HEK293 cells stably transfecting the GPR120-Rluc gene were seeded in two black 96-well plates (100 μl, 2 × 10^4 cells per well). After incubating the cells for 24 h, the medium of the non-specific plate was removed, and positive control GSK134647A (15 μM, 50 μl per well) was added into each well. After a 40-min incubation, the medium was removed, and probe N1 was added into two plates (100 μl per well). Followed by incubation for 40 min, coelenterazine was added to the plates (final concentration: 10 μM, 100 μl per well for specific plates; 50 μl per well for non-specific plates). Finally, the fluorescence intensity was measured at 460 and 520 nm with the microplate reader after a 10-min incubation ([Christiansen et al., 2016]).

[16] = target: T2, GPR120; assay: BRET kinetic binding experiment of probe N1; design: expressed in transfected cells
Description: HEK293 cells stably transfecting the GPR120-Rluc gene were seeded in two entirely black 96-well plates (100 μl, 2 × 10^4 cells per well). After a 24-h incubation, the medium was removed from the non-specific plate, coelenterazine was added to (final concentration: 10 μM, 50 μl per well) the plates, and BRET value was measured after a 5-min incubation. Probe N1 (500 nM, 100 μl per well) was then added, and the BRET value was recorded in a 30-s interval for 6 minutes. Finally, GSK137647A was added (50 μl per well), and BRET value was measured in a 30-s interval for 30 min.

[17] = GPR120, Ca2+ flow, HEK293 GPR120-Rluc cells, read-out: pEC50 Ca2+ assay (converted)
[18] = GPR120, β-arrestin-2 activity test, read-out: pEC50 BRET (converted)

## O=S(=O)(Nc1ccc(F)cc1)c1ccc(-c2ccc(OC(F)(F)F)cc2)cc1 [Compound D5, N-(4-Fluorophenyl)-4′-(Trifluoromethoxy)-[1,1′-Biphenyl]-4-Sulfonamide]
[1]; CHO cells, GPR40, read-out: FFA1 (Ca2+ pEC50) (converted)
  EC50: > 50.1 µM
[2]; 10 mg/kg
  fasting blood glucose-lowering level compared with GSK137647A: the same blood glucose-lowering level
[2]; 30 mg/kg
  fasting blood glucose-lowering level compared with GSK137647A: a higher blood-glucose-lowering level
[3]; 10 mg/kg
  reduction of blood glucose AUC0–120 min: 15.3%
[3]; 30 mg/kg
  reduction of blood glucose AUC0–120 min: 30.3%
[4]
  bias (bias factor, Gq vs β-arrestin2): relatively biased towards the Gq pathway
[5]; 10 mg/kg
  weight change: reached a stable level in the fourth week
[5]; 30 mg/kg
  weight change: decreased in the fourth week
other
  melting point: 148 to 149 °C
[6]; GSK137647A used as a standard
  Emax (FFA4 Ca2+): 1.22
[6]; Table 3, read-out: FFA4 (Ca2+ pEC50) (converted)
  EC50: 0.00537 µM
[7]
  inhibition rate in BRET screening compared with GSK137647A: higher than GSK137647A
[8]; N1 0.5 μM and D5 10 μM, HEK293 cells stably transfected with GPR120
  fluorescence intensity of N1 after co-incubation (competitive cell imaging): decreased significantly
[9]; GSK137647A used as a standard
  Emax (FFA4 β-arrestin2): 1.12
[9]; Table 3, read-out: FFA4 (β-arrestin2 pEC50) (converted)
  EC50: 0.0347 µM

## COc1ccc(S(=O)(=O)Nc2c(C)cc(C)cc2C)cc1 [GSK137647A, reference compound]
[3]; 30 mg/kg
  reduction of blood glucose AUC0–120 min: 19.3%
[10]
  pEC50 (Literature): 6.30 ± 0.2^16
[11]
  FFA4 Human pEC50: 6.3(0.17)
[12]
  FFA1 Human pEC50: < 4.5
[6]; [17]
  EC50: 0.0447 µM
[6]; GPR120, Table 2
  pEC50 (Ca2+ assay): 7.35 ± 0.59
[13]
  Ki: 0.11 µM
[9]; [18]
  EC50: 0.178 µM

## Cc1cc(C)c(NS(=O)(=O)c2ccc(NCCN3C(=O)c4cccc5c(N(C)C)ccc(c45)C3=O)cc2)c(C)c1 [Compound N1, 4-((2-(6-(Dimethylamino)-1,3-dioxo-1H-benzo[de]isoquinolin-2(3H)-yl)ethyl)amino)-N-mesitylbenzenesulfonamide]
[1]; TAK875 as positive control
  Ca2+ response to GPR40 compared with TAK875: much lower than that of TAK875
[14]; MeCN
  λabs: 419 nm
[14]; PBS
  Φ (absolute quantum yield): 3.73%
  λem: 562 nm
  λex: 444 nm
[14]; PBS buffer (pH = 7.4)
  SS (stokes shift): 118 nm
other
  melting point: 230 to 231 °C
[6]; [17]
  EC50: 0.891 µM
[15]
  Kd: 1.12 ± 0.6 µM
[16]; after adding excess GSK137647A
  time to reach a stable state of dissociation from GPR120: 30 min
[16]; kinetic binding experiment
  Kd: 0.273 µM
[16]; probe 500 nM
  time for binding to GPR120 to reach saturation: ≤ 6 min
[16]; probe 500 nM, dissociation by GSK137647A (10 μM), read-out: off-rate koff (converted)
  koff: 0.00113 s⁻¹
[16]; probe 500 nM, read-out: on-rate kon (converted)
  kon: 4150 M⁻¹ s⁻¹
[8]; HEK293 and PC-3 cells
  fluorescence intensity in cell imaging: much greater than that of N2 and N3
[9]; [18]
  EC50: 0.427 µM
